Values quoted from earlier work in US11052155B2, “Conjugates of CC-1065 analogs and bifunctional linkers” (priority 2010, dated 2021).

Details: in vivo

For `COc1c(O)c2c(c3cc(C(=O)N4CCc5c4c(O)c(OC)c4[nH]c(C(=O)N6CC7CC78C6=CC(=O)c6[nH]cc(C)c68)cc54)[nH]c13)CCN2C(N)=O` (stereo not shown) [CC-1065], which hepatotoxicity is on record?
Its hepatotoxicity is “serious delayed hepatotoxicity”.
